# Biological target: T1, human IL-17A (Homo sapiens, UniProt Q16552)
# T1 construct: purchased R&D Systems 7955-IL/CF
# T1 sequence (Q16552 24-155): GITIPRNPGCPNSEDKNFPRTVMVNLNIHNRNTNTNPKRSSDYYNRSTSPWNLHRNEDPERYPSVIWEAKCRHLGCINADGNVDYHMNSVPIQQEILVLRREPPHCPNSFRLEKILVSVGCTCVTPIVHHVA
# Assay: IL-17A AlphaLISA competition assay (block of IL-17A binding to its receptor IL-17RA)
# Details: mean IC50 (n≥2), block of IL-17A binding to IL-17RA
# Summary of the method: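 Human recombinant IL-17A (7.5 nM stock) pre-incubated 30 min at RT with compound, then IL-17RA/Fc (5 nM stock) added for 90 min; AlphaLISA read with anti-Fc acceptor beads, biotinylated anti-IL-17A antibody (5 nM) and streptavidin donor beads (3 h, dark). IC50 from 4-parameter logistic fit, normalised to DMSO and 4 μM reference inhibitor; n≥2.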
row,IC50 [nM],Compound
1,25,"COC[C@H](c1ccnc(NC(=O)C(NC(=O)c2nonc2C2CC2)C2CCC(C)(F)CC2)c1)N1C[C@@H](C(F)(F)F)NC1=O (single isomer, unassigned) [Example 295]"
2,20,"CCn1nccc1C(=O)N[C@H](C(=O)Nc1cc(C(COC)N2C[C@@H](C(F)(F)F)NC2=O)ccn1)[C@H]1CC[C@H](C)CC1 (single isomer, unassigned) [Example 124]"
3,105,"CC(C)n1nccc1C(=O)N[C@H](C(=O)Nc1cc(C[C@H]2C[C@@H](C(F)(F)F)NC2=O)ccn1)C1CCC(F)(F)CC1 [Example 225, N-((S)-1-(4,4-difluorocyclohexyl)-2-oxo-2-((4-(((3S,5S)-2-oxo-5-(trifluoromethyl)pyrrolidin-3-yl)methyl)pyridin-2-yl)amino)ethyl)-1-isopropyl-1H-pyrazole-5-carboxamide]"
4,25400,"Cn1nccc1C(=O)NC(C(=O)Nc1cc(Cc2cccc(=O)n2C)ccn1)C1CCC(F)(F)CC1 (stereo not drawn) [Example 37, N-(1-(4,4-difluorocyclohexyl)-2-((4-((1-methyl-6-oxo-1,6-dihydropyridin-2-yl)methyl)pyridin-2-yl)amino)-2-oxoethyl)-1-methyl-1H-pyrazole-5-carboxamide]"
5,24,"COC[C@H](c1ccnc(NC(=O)C(NC(=O)c2nonc2C2CC2)C2CCC(F)CC2)c1)N1C[C@@H](C(F)(F)F)NC1=O (single isomer, unassigned) [Example 276]"
6,2950,"CC(C)(C)OC(=O)N[C@H](C(=O)Nc1cc(CN2C[C@@H](C(F)(F)F)NC2=O)c(F)cn1)[C@H]1CC[C@H](C)CC1 [Example 50, tert-butyl ((S)-2-((5-fluoro-4-(((S)-2-oxo-4-(trifluoromethyl)imidazolidin-1-yl)methyl)pyridin-2-yl)amino)-1-((1r,4S)-4-methylcyclohexyl)-2-oxoethyl)carbamate]"
7,74,"CCn1nccc1C(=O)N[C@H](C(=O)Nc1cc([C@@H](COC)N2C[C@@H](C(F)(F)F)NC2=O)ccn1)[C@H]1CCCC(F)(F)C1 (single isomer, unassigned) [Example 308]"
8,23,"CCc1nonc1C(=O)N[C@H](C(=O)Nc1cc([C@@H](CC)N2C[C@@H](C(F)(F)F)NC2=O)ccn1)C1CCC(F)(F)CC1 [Example 209, N-((S)-1-(4,4-difluorocyclohexyl)-2-oxo-2-((4-((R)-1-((S)-2-oxo-4-(trifluoromethyl)imidazolidin-1-yl)propyl)pyridin-2-yl)amino)ethyl)-4-ethyl-1,2,5-oxadiazole-3-carboxamide]"
9,105,"COC[C@H](c1ccnc(NC(=O)[C@@H](NC(=O)c2nocc2OCC(F)F)C2CCC(F)(F)CC2)c1)N1C[C@@H](C(F)(F)F)NC1=O [Example 192, N-((S)-1-(4,4-difluorocyclohexyl)-2-((4-((S)-2-methoxy-1-((S)-2-oxo-4-(trifluoromethyl)imidazolidin-1-yl)ethyl)pyridin-2-yl)amino)-2-oxoethyl)-4-(2,2-difluoroethoxy)isoxazole-3-carboxamide]"
10,117,"CCc1cnoc1C(=O)N[C@H](C(=O)Nc1cc(C(CC(F)(F)F)NC(=O)CCC(F)(F)F)ccn1)C1CCC(F)(F)CC1 (stereo partly drawn) [Example 157, N-((1S)-1-(4,4-difluorocyclohexyl)-2-oxo-2-((4-(3,3,3-trifluoro-1-(4,4,4-trifluorobutanamido)propyl)pyridin-2-yl)amino)ethyl)-4-ethylisoxazole-5-carboxamide]"
11,106,"COCC(c1ccnc(NC(=O)C(NC(=O)Cc2cc(C)on2)C2CCC(C)CC2)c1)N1CC(C(F)(F)F)NC1=O (single isomer, unassigned) [Example 253]"
12,7370,"COCC(NC(=O)CCC(F)(F)F)c1ccnc(NC(=O)[C@@H](NC(=O)c2nccn2C)C2CCC(F)(F)CC2)c1 (single isomer, unassigned) [Example 140]"
13,77,"COCC(c1ccnc(NC(=O)[C@@H](NC(=O)c2nccn2C(C)C)[C@H]2CC[C@H](C)CC2)c1)N1C[C@@H](C(F)(F)F)NC1=O (single isomer, unassigned) [Example 115]"
14,197,"COCC(NC(=O)CCC(F)(F)F)c1ccnc(NC(=O)[C@@H](NC(=O)c2ccnn2C(C)C)C2CCC(F)(F)CC2)c1 (single isomer, unassigned) [Example 137]"
15,85,"COCC(NC(=O)CCC(F)(F)F)c1ccnc(NC(=O)C(NC(=O)c2nonc2C)C2CCC(C)CC2)c1 [Example 242, N-((1S)-2-((4-(2-methoxy-1-(4,4,4-trifluorobutanamido)ethyl)pyridin-2-yl)amino)-1-((1r,4S)-4-methylcyclohexyl)-2-oxoethyl)-4-methyl-1,2,5-oxadiazole-3-carboxamide]"
16,92,"O=C(CCC(F)(F)F)NC(c1ccnc(NC(=O)[C@@H](NC(=O)c2nonc2C2CC2)C(C2CC2)C2CC2)c1)C1CC1 (single isomer, unassigned) [Example 40]"
17,29,"CC1CCC(C(NC(=O)c2ccnn2C(C)C)C(=O)Nc2cc(C(C)N3CC(C(F)(F)F)NC3=O)ccn2)CC1 [Example 241, 1-isopropyl-N-((S)-1-((1r,4S)-4-methylcyclohexyl)-2-oxo-2-((4-((R)-1-((S)-2-oxo-4-(trifluoromethyl)imidazolidin-1-yl)ethyl)pyridin-2-yl)amino)ethyl)-1H-pyrazole-5-carboxamide]"
18,612,"C[C@H]1CC[C@H]([C@H](NC(=O)c2nonc2C2CC2)C(=O)Nc2cc(CN3C[C@@H](C(F)(F)F)NC3=O)c(F)cn2)CC1 [Example 61, 4-cyclopropyl-N-((S)-2-((5-fluoro-4-(((S)-2-oxo-4-(trifluoromethyl)imidazolidin-1-yl)methyl)pyridin-2-yl)amino)-1-((1r,4S)-4-methylcyclohexyl)-2-oxo-ethyl)-1,2,5-oxadiazole-3-carboxamide]"
19,10400,"CC(C)(C)OC(=O)N[C@H](C(=O)Nc1cc(COC(=O)NCC(F)(F)F)ccn1)[C@H]1CC[C@H](C)CC1 [Example 26, Tert-butyl ((S)-1-((1r,4S)-4-methylcyclohexyl)-2-oxo-2-((4-((((2,2,2-trifluoroethyl)carbamoyl)oxy)methyl)pyridin-2-yl)amino)ethyl)carbamate]"
20,4800,"COC[C@H](c1ccnc(NC(=O)C(NC(=O)c2nonc2C2CC2)C2CCC(C)(F)CC2)c1)N1C[C@@H](C(F)(F)F)NC1=O (single isomer, unassigned) [Example 297]"
21,31,"COC[C@H](c1ccnc(NC(=O)[C@@H](NC(=O)c2nocc2C2CCC2)C2CCC(F)(F)CC2)c1)N1C[C@@H](C(F)(F)F)NC1=O [Example 191, 4-cyclobutyl-N-((S)-1-(4,4-difluorocyclohexyl)-2-((4-((S)-2-methoxy-1-((S)-2-oxo-4-(trifluoromethyl)imidazolidin-1-yl)ethyl)pyridin-2-yl)amino)-2-oxoethyl)isoxazole-3-carboxamide]"
22,82,"COCC(c1ccnc(NC(=O)[C@@H](NC(=O)c2ocnc2C)[C@H]2CC[C@H](C)CC2)c1)N1C[C@@H](C(F)(F)F)NC1=O (single isomer, unassigned) [Example 122]"
23,60,"COCC(c1ccnc(NC(=O)[C@@H](NC(=O)c2conc2C(C)C)[C@H]2CC[C@H](C)CC2)c1)N1C[C@@H](C(F)(F)F)NC1=O (single isomer, unassigned) [Example 77]"
24,222,"CC(C)n1nccc1C(=O)N[C@H](C(=O)Nc1cc([C@@H](C)NC(=O)CCC(F)(F)F)ccn1)C1CCC(F)(F)CC1 [Example 167, N—((S)-1-(4,4-difluorocyclohexyl)-2-oxo-2-((4-((R)-1-(4,4,4-trifluoro-butanamido)ethyl)pyridin-2-yl)amino)ethyl)-1-isopropyl-1H-pyrazole-5-carboxamide]"
25,151,"CCc1nocc1C(=O)N[C@H](C(=O)Nc1cc(C(NC(=O)CCC(F)(F)F)C2CC2)ccn1)C(C1CC1)C1CC1 (single isomer, unassigned) [Example 44]"
26,1360,"COCC(NC(=O)CCC(F)(F)F)c1ccnc(NC(=O)[C@@H](NC(=O)c2ccnn2C(C)C)C2CCC(F)(F)CC2)c1 (single isomer, unassigned) [Example 145]"
27,38,"COCC(NC(=O)CCC(F)(F)F)c1ccnc(NC(=O)C(NC(=O)c2nonc2C2CC2)C2CCC(C)CC2)c1 [Example 243, 4-cyclopropyl-N-((1S)-2-((4-(2-methoxy-1-(4,4,4-trifluorobutanamido)ethyl)pyridin-2-yl)amino)-1-((1r,4S)-4-methylcyclohexyl)-2-oxoethyl)-1,2,5-oxadiazole-3-carboxamide]"
28,80,"CC(C)c1oncc1C(=O)N[C@H](C(=O)Nc1cc(C[C@H]2C[C@@H](C(F)(F)F)NC2=O)ccn1)C1CCC(F)(F)CC1 [Example 219, N-((S)-1-(4,4-difluorocyclohexyl)-2-oxo-2-((4-(((3S,5S)-2-oxo-5-(trifluoromethyl)pyrrolidin-3-yl)methyl)pyridin-2-yl)amino)ethyl)-5-isopropylisoxazole-4-carboxamide]"
29,86,"COC[C@H](c1ccnc(NC(=O)[C@@H](NC(=O)c2ccnn2C(C)C)C(C2CC2)C2CC2)c1)N1C[C@@H](C(F)(F)F)NC1=O [Example 229, N-((S)-1,1-dicyclopropyl-3-((4-((S)-2-methoxy-1-((S)-2-oxo-4-(trifluoromethyl)imidazolidin-1-yl)ethyl)pyridin-2-yl)amino)-3-oxopropan-2-yl)-1-isopropyl-1H-pyrazole-5-carboxamide]"
30,44,"COC[C@H](c1ccnc(NC(=O)C(NC(=O)c2nonc2C2CC2)C2CCC(F)CC2)c1)N1C[C@@H](C(F)(F)F)NC1=O (single isomer, unassigned) [Example 277]"
